Series [1] can be described thus: physchem. The series is classed as physicochemical. Conditions: for solubility: organic solvent or mixture, thermodynamic from solid. On the procedure:
FA/AcOH mixtures ranging from 100% FA to 70%/30% FA/AcOH in decrements of 10% were used.
Solutions of FA/AcOH at ratios described in Table 39 were used. […] Samples were taken at each time point (4, 24, and 48 h) and assayed (36 total). Samples were spun down briefly (500 g, 4 min) to precipitate all solids and 25 μL of solution were taken for assay.

Series [2] is classed as physicochemical. An excerpt:
“Compound 1” or “API” in the Examples herein refers to polymorph Form C of 2-(4-chlorophenyl)-N-((2-(2,6-dioxopiperidin-3-yl)-1-oxoisoindolin-5-yl)methyl)-2,2-difluoroacetamide. […] Other forms of Compound 1, including Form A, Form B, Form D, Form F and amorphous form can be used in the formulations provided herein.

The test system of series [3] is acute myeloid leukemia (AML) at relapse. The following applies: administered alone; cited from earlier work.

As for `O=C1CCC(N2Cc3cc(CNC(=O)C(F)(F)c4ccc(Cl)cc4)ccc3C2=O)C(=O)N1` (centres unmarked) [Compound 1, 2-(4-chlorophenyl)-N-((2-(2,6-dioxopiperidin-3-yl)-1-oxoisoindolin-5-yl)methyl)-2,2-difluoroacetamide], the “solubility across FA/AcOH mixtures” value in series [1] was “maximized in 100% FA”. Further, the solubility in series [1] (40 °C) is > 250 mg/mL. The solubility in series [1] (60 °C) was > 250 mg/mL. In addition, in series [2], the Hygroscopicity entry is on record as “Not hygroscopic”, the “Solid State Stability” value is reported as “DS is physically stable under all storage conditions” and the major degradation pathway entry is “Hydrolysis”. The “Solution Stability” value in series [2] (pH 5) is given as “not stable in solution at pH of 5.0 or above”.

Regarding “CT-011: anti-PD-1 antibody, a humanized antibody”, in series [3], the “response in treating acute myeloid leukemia (AML) at relapse” value is reported as “failed to show response”.

The values above are taken from patent US20200206212A1 (Celgene Corporation, priority 2018, published 2020).
